Publication PMC10860182 (ACS Medicinal Chemistry Letters, 2024)
Where two headings read alike, the source gives them in different places.

Experiments:
[1] = molecular target: human 5-HT2A (Homo sapiens, UniProt P28223); details: for 5-HT2A % Max: % 5-HT Max, human 5-HT2A-CHO cells; for higher agonist potency for 5-HT2B and 5-HT2C relative to 5-HT2A: compared with 5-HT2A potency
[2] = molecular target: human 5-HT2B (Homo sapiens, UniProt P41595); details: % 5-HT Max, human 5-HT2B-HEK293 cells
[3] = molecular target: human 5-HT2C (Homo sapiens, UniProt P28335); details: % 5-HT Max, human 5-HT2C-CHO cells
[4] = predicted hepatic clearance, human hepatic microsomes
[5] = tested on: 5-HT2B; details: read-out: 5-HT2B EC50; previously described, patent application ref 20; cited from earlier work
[6] = predicted hepatic clearance, rat
[7] = molecular target: T1, P-gp (Homo sapiens, UniProt P08183); details: MDCK-MDR1 cells, 5 µM
[8] = rat PK cassette, iv, 0.2 mg/kg
[9] = in vivo; details: male, Sprague Dawley, rat, iv, 0.2 mg/kg
[10] = in vitro; details: human, plasma, pH 7.4
[11] = in vitro; details: rat, plasma, pH 7.4
[12] = in vitro; details: mouse, plasma, pH 7.4
[13] = molecular target: T1, P-gp; experiment: in vitro; details: MDCK-MDR1

human 5-HT2A, sequence (P28223 whole entry): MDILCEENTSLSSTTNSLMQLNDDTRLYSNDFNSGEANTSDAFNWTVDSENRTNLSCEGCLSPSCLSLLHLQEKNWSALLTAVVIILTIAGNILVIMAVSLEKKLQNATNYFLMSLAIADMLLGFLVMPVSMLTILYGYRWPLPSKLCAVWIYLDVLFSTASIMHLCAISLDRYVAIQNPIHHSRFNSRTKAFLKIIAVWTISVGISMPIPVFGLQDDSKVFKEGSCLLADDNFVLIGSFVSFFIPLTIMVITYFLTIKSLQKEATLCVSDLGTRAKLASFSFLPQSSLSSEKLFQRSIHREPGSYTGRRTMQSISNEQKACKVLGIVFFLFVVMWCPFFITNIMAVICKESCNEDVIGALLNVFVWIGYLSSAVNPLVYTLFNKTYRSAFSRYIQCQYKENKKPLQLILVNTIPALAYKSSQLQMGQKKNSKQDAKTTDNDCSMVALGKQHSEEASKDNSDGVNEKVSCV
human 5-HT2B, sequence (P41595 whole entry): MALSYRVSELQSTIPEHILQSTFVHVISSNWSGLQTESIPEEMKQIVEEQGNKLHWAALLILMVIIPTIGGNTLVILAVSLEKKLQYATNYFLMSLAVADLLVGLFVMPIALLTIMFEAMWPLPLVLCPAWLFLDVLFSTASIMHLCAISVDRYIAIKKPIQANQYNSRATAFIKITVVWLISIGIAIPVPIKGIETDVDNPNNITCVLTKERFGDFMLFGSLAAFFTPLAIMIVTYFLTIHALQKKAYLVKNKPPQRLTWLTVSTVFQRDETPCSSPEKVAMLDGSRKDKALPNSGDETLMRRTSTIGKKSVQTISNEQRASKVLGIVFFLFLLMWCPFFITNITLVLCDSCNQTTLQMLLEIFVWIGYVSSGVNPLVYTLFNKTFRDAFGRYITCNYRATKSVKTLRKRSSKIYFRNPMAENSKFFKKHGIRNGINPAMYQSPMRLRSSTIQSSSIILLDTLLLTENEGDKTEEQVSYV
human 5-HT2C, sequence (P28335 33-458): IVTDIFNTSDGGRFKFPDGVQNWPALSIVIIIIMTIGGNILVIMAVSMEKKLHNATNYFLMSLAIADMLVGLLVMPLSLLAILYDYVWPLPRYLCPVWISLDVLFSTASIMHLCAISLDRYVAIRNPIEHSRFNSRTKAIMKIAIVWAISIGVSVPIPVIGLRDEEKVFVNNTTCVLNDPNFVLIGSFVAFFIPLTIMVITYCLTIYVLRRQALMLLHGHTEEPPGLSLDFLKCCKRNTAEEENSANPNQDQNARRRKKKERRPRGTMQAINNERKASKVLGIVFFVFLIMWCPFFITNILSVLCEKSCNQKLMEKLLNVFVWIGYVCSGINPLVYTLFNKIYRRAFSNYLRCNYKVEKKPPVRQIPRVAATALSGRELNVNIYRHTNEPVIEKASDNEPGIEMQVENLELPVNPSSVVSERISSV
T1 sequence (P08183 whole entry): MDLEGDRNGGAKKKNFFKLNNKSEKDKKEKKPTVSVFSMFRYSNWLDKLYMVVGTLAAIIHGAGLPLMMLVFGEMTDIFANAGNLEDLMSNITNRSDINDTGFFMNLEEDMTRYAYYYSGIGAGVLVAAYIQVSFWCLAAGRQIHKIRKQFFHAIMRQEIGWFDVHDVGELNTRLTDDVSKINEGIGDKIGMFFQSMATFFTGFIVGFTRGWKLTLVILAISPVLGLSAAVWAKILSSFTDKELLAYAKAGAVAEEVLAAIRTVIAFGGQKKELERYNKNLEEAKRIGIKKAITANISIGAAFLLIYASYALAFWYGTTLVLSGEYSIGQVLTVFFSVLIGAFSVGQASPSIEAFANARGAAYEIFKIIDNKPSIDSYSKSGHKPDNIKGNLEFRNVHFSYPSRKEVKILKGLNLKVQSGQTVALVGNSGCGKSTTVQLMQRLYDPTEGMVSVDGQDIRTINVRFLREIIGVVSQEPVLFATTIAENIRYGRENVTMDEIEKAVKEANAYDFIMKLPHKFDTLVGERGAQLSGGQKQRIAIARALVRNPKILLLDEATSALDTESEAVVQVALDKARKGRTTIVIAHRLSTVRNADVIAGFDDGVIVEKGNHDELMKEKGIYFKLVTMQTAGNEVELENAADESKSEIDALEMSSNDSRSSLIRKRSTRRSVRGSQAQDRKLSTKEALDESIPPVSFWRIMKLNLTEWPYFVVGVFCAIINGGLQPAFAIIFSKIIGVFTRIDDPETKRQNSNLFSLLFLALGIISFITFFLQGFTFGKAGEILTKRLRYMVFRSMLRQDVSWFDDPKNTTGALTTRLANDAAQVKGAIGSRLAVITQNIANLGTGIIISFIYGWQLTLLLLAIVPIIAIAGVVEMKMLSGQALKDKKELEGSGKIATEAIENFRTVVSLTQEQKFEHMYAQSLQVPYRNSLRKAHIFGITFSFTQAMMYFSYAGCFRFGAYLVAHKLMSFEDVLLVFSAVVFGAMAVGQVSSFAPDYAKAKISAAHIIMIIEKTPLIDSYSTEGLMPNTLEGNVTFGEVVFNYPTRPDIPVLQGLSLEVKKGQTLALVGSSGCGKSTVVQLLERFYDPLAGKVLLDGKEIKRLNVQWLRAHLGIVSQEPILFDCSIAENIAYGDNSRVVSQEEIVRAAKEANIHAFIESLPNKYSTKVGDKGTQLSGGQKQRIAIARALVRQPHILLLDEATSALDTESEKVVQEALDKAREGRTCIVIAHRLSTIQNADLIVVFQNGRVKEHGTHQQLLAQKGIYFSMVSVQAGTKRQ

| Structure (SMILES) | 5-HT2A % Max [1] [%] | 5-HT2B % Max [2] [%] | 5-HT2C % Max [3] [%] | CLhep [4] | further results |
| --- | --- | --- | --- | --- | --- |
| COc1ccc2[nH]nc(CCN(C)C)c2c1 [Compound 6a] | 10.7 ± 0.6 | 48.0 ± 7.6 | 32.1 ± 2.2 | 12.1 (mL/min)/kg | EC50 [5]: > 10 µM |
| C1=C(c2n[nH]c3ccccc23)CNCC1 [Compound 19a] | 17.5 ± 3.2 | 83.8 ± 1.9 | 67.7 ± 6.6 | – | higher agonist potency for 5-HT2B and 5-HT2C relative to 5-HT2A [1]: approximately 10 fold |
| Cn1nc(C2=CCCNC2)c2ccccc21 [Compound 19b] | 42.2 ± 3.7 | 48.0 ± 4.8 | 50.3 ± 2.4 | – | higher agonist potency for 5-HT2B and 5-HT2C relative to 5-HT2A [1]: approximately 10 fold |
| CN(C)CCc1n[nH]c2ccc(O)cc12 [Compound 16] | 26.2 ± 1.4 | 53.7 | 53.3 | – | – |
| Nc1ccc2[nH]nc(C3=CCCNC3)c2c1 [Compound 19e] | 40.4 ± 1.3 | 96.1 | 86.9 | – | – |
| Brc1ccc2[nH]nc(C3=CCCNC3)c2c1 [Compound 19d] | 41.4 ± 3.4 | 82.8 ± 1.9 | 93.9 | 5.6 (mL/min)/kg | CLhep [6]: 58 (mL/min)/kg; PappA-B [7]: 7.9 10^–6 cm/s; CLp [8]: 34.2 (mL/min)/kg; Kp at 0.25 h ([9]; brain): 5.4; Vd at 24 h ([9]; plasma): 6.33 L/kg; half-life at 24 h ([9]; plasma): 2.8 h; fraction unbound at 6 h, 5 µM [10]: 0.12; fraction unbound at 6 h, 5 µM [11]: 0.13; fraction unbound at 6 h, 5 µM [12]: 0.12; efflux ratio at 5 µM [13]: 1.3 |
| [2H]C([2H])(Cc1n[nH]c2ccc(OC)cc12)N(C)C [Compound 6b] | 11.7 ± 0.6 | 60.5 | 32.3 | 11.7 (mL/min)/kg | – |
| COc1ccc2[nH]nc(C3=CCCNC3)c2c1 [Compound 19f] | 12.3 ± 1.8 | 93.6 | 59.8 ± 3.2 | – | – |
